Laboratory results published in US10377741B2, “Substituted heteroaryl aldehyde compounds and methods for their use in increasing tissue oxygenation” (Global Blood Therapeutics, Inc., priority 2011, dated 2019).

Target: T1, purified Hemoglobin S (HbS) (Homo sapiens, UniProt P68871+P69905, E7V)
T1 construct: HbS was purified by a modified procedure; from tissue; host or cells: blood of homozygous sickle cell patients (CHORI); for the polymerization assay purified by the CRO VIRUSYS
Test: Modulation of hemoglobin oxygen affinity: oxygen equilibrium curves (HEMOX) in purified HbS
Format: biochemical, human (homozygous sickle cell patients)
Conditions: compound at 30 μM; 25 μM purified HbS, 45 min at 37° C.
Procedure: Oxygen equilibrium curves (OEC) in purified Hemoglobin S (HbS) were measured by the change in p50, the partial pressure of oxygen at which the heme binding sites in the HbS sample are 50% saturated with oxygen. HbS was purified by a modified procedure (Antonini and Brunori, 1971; Heomoglobin and Myoglobin in their Reactions with Ligands; North Holland Publishing Company; Amsterdam, London) from blood obtained from homozygous sickle cell patients though the Hemoglobinopathy Center at Children's Hospital Oakland Research Institute (CHORI) with Institutional Review Board approval. Oxygen equilibrium curves were carried out with a HEMOX analyzer, (TCS Scientific, New Hope, Pa.). Five hundred μL of 250 μM purified HbS were diluted into 4.5 mL of HEMOX buffer (30 mM TES, 130 mM NaCl, 5 mM KCl, pH=7.4) resulting in a final hemoglobin concentration of 25 μM. The compounds were added at the final desired concentrations. The mixture was incubated for 45 min at 37° C. and then transferred to the Hemox sample chamber. The samples were saturated with oxygen by flushing with compressed air for 10 minutes. The samples were then flushed with pure nitrogen and the absorbance of deoxy-Hb was recorded as a function of the solution pO2. The oxygen equilibrium data was then fit to the Hill Model to obtain values for p50. The deoxygenation curves for both HbS alone (control) and HbS in the presence of compound were collected with the TCS software. The p50 for purified Hbs was typically 13.8±1.6. Delta p50 values were obtained from the p50 value for control minus the p50 value for HbS treated with compound divided by the p50 value for the control.
The compounds of Table 1 that were where tested in the assay above were all found to have positive delta p50 values. Delta p50% is calculated from [[p50(HbS) −p50(HbS treated with compound)]/p50(HbS)]×100. Table 2 below lists the delta p50% values where + indicates a delta p50% of between 0 and 29, ++ indicates a delta p50% of between 30 and 50, and +++ indicates a delta p50% of 50 or greater. Unless noted otherwise, the compounds in Table 2 were tested at 30 μM.

SMILES | delta p50%
CCOC(=O)C1CSC(c2cc(OC)ncc2OCc2cccn3ccnc23)N1 (centres unmarked) [Compound 126, ethyl 2-(5-(imidazo[1,2-a]pyridin-8-ylmethoxy)-2-methoxypyridin-4-yl)thiazolidine-4-carboxylate] | + (a delta p50% of between 0 and 29)
Cc1ccc(OCc2cccnc2-n2cccn2)c(C=O)n1 [Compound 135, 3-((2-(1H-pyrazol-1-yl)pyridin-3-yl)methoxy)-6-methylpicolinaldehyde] | + (a delta p50% of between 0 and 29)
Cc1ccc(OCc2cccnc2)c(C=O)n1 [Compound 136, 6-methyl-3-(pyridin-3-ylmethoxy)picolinaldehyde] | + (a delta p50% of between 0 and 29)
COC(=O)c1cc(COc2cnc(OC)cc2C=O)c2nccn2c1 [Compound 137, methyl 8-(((4-formyl-6-methoxypyridin-3-yl)oxy)methyl)imidazo[1,2-a]pyridine-6-carboxylate] | + (a delta p50% of between 0 and 29)
COC(=O)c1cc(COc2cnc(OC)cc2C=O)c2nc(Br)cn2c1 [Compound 138, methyl 2-bromo-8-(((4-formyl-6-methoxypyridin-3-yl)oxy)methyl)imidazo[1,2-a]pyridine-6-carboxylate] | + (a delta p50% of between 0 and 29)
Cc1ccc(OCc2cccn3cncc23)c(C=O)n1 [Compound 139, 3-(imidazo[1,5-a]pyridin-8-ylmethoxy)-6-methylpicolinaldehyde] | + (a delta p50% of between 0 and 29)
COC(=O)c1cncc(COC(=O)c2cncc(COc3cnc(OC)cc3C=O)c2)c1 [Compound 141, (5-(methoxycarbonyl)pyridin-3-yl)methyl 5-(((4-formyl-6-methoxypyridin-3-yl)oxy)methyl)nicotinate] | + (a delta p50% of between 0 and 29)

The next lines start with the values.

delta p50% | SMILES
+ (a delta p50% of between 0 and 29) | COc1cc(C=O)c(OCc2cc(-c3nn[nH]n3)cn3ccnc23)cn1 [Compound 125, 5-((6-(2H-tetrazol-5-yl)imidazo[1,2-a]pyridin-8-yl)methoxy)-2-methoxyisonicotinaldehyde]
+ (a delta p50% of between 0 and 29) | COc1cc(C=O)c(OCc2cccnc2-c2cnn(C)c2)cn1 [Compound 127, 2-methoxy-5-((2-(1-methyl-1H-pyrazol-4-yl)pyridin-3-yl)methoxy)isonicotinaldehyde]
+ (a delta p50% of between 0 and 29) | COc1cc(C=O)c(OCc2cccnc2-c2cn[nH]c2)cn1 [Compound 128, 5-((2-(1H-pyrazol-4-yl)pyridin-3-yl)methoxy)-2-methoxyisonicotinaldehyde]
+ (a delta p50% of between 0 and 29) | COc1cc(C=O)c(OCc2cccnc2-c2c(C)cnn2C)cn1 [Compound 142, 5-((2-(1,4-dimethyl-1H-pyrazol-5-yl)pyridin-3-yl)methoxy)-2-methoxyisonicotinaldehyde]
